Data as given in patent EP4706404A1, “MICROENCAPSULATED NATURAL PRESERVATIVE AND ANTIOXIDANT FOR FATTY FOODS, WITH WALNUT HUSK AND WALNUT TREE LEAF EXTRACT” (Universidad Andres Bello, priority 2023, dated 2024).
Where two headings read alike, the source gives them in different places.

Tests used:
Salmonella = details: mayonnaise
Excerpt: (§1) Mayonnaise was made on a laboratory scale using mayonnaise powder, the flowchart is shown in Diagram 3. [formula]
(§2) Where the stability of mayonnaise without any antioxidant (control) was studied, the stability when using a frequently used synthetic antioxidant such as EDTA, and a microparticle of the invention for foods with more than 70% fat, which corresponds to Maltodextrin with capsule as a channeling agent (EH:MD-Capsule). The dose used was in accordance with the food safety regulations (FSR) and corresponded to 5.5 g of microparticles per 2 kilos of mayonnaise. […] Table 9. Mayonnaise formulation for stability tests.

[1] = system: mesophilic aerobic microorganisms (AMR); details: mayonnaise
Excerpt: as §1, §2

S. aureus = details: mayonnaise

Experimental for HEPG-2: The test consisted of evaluating the cytotoxic effect of walnut husk and leaf extract, in different concentrations, on viability in cell culture. For this, the HEPG-2 line was used as a cell matrix, which are immortalized human liver cells.
To evaluate the effect on viability in cell culture, an assay was performed with the Invitrogen MTT kit (Ref.V13154; lot:1924421), whose technique consists of a colorimetric analysis that measures the metabolic activity of the cell. This assay was carried out following the protocol provided by the kit supplier, using a 96-well plate with HEPG-2 cell culture with an approximate confluence of 80%. Taking the cytotoxic compound SDS 0.2% as a positive control and the cell culture with its medium as a negative control.

SMILES: CCCCCCCCCCCCOS(=O)(=O)[O-].[Na+] [SDS]
- Cell viability (HEPG-2): 22.9%
- Cell viability (Caco-2 cells): 3.94± 0.2%

SMILES: O=C(O)CN(CCN(CC(=O)O)CC(=O)O)CC(=O)O [synthetic, EDTA]
- Salmonella Title (Salmonella; 4°C, 6 days refrigeration): 0 CFU/gr
- Salmonella Title (Salmonella; 4°C, 13 days refrigeration): 0 CFU/gr
- Salmonella Title (Salmonella; 4°C, 20 days refrigeration): 0 CFU/gr
- Salmonella Title (Salmonella; 4°C, 27 days refrigeration): 0 CFU/gr
- Salmonella Title (Salmonella; Time 0): 0 CFU/gr
- day of conservation from which AMR were detected ([1]; 4°C): 20 days
- AMR Title ([1]; 4°C, 6 days refrigeration): 0 CFU/gr
- AMR Title ([1]; 4°C, 13 days refrigeration): 0 CFU/gr
- AMR Title ([1]; 4°C, 20 days refrigeration): 2x10^4 CFU/gr
- AMR Title ([1]; 4°C, 27 days refrigeration): 1.25 x 10^5 CFU/gr
- AMR Title ([1]; Time 0): 0 CFU/gr
- day from which S. aureus develops (S. aureus; 4°C): 20 days
- S. aureus Title (S. aureus; 4°C, 6 days refrigeration): 0 CFU/gr
- S. aureus Title (S. aureus; 4°C, 13 days refrigeration): 0 CFU/gr
- S. aureus Title (S. aureus; 4°C, 27 days refrigeration): 1.15 x 10^4 CFU/gr
- S. aureus Title (S. aureus; Time 0): 0 CFU/gr
